From publication PMC4822259 (Parasites & Vectors, 2016)

Columns and labels:
Assay type in all cases: cell-based
CqDOP2 = biological target: T1, CqDOP2 (Culex quinquefasciatus, UniProt A0A0B5H0X6); test: IP-One HTRF IP1 accumulation, inhibition of dopamine response, HEK-293
T1 construct: gene DOP2; receptor expressed in HEK-293 cells, from authors' previous work
T1 sequence (A0A0B5H0X6 1-479): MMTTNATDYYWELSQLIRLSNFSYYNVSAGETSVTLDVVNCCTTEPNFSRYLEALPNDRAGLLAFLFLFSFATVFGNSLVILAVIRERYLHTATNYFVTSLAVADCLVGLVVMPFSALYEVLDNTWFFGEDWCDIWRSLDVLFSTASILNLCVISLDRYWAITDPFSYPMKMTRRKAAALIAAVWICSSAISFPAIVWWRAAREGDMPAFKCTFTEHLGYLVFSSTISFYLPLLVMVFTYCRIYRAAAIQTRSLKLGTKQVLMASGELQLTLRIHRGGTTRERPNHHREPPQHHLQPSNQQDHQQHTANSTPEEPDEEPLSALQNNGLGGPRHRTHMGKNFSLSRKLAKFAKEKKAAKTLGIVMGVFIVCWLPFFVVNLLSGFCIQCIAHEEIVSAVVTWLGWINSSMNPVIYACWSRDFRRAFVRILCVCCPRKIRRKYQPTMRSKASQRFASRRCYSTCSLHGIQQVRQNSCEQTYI

AgDOP2 [1] = biological target: T2, AgDOP2 (Anopheles gambiae, UniProt A0A1W5KQ45); test: as above
T2 sequence (A0A1W5KQ45 1-495): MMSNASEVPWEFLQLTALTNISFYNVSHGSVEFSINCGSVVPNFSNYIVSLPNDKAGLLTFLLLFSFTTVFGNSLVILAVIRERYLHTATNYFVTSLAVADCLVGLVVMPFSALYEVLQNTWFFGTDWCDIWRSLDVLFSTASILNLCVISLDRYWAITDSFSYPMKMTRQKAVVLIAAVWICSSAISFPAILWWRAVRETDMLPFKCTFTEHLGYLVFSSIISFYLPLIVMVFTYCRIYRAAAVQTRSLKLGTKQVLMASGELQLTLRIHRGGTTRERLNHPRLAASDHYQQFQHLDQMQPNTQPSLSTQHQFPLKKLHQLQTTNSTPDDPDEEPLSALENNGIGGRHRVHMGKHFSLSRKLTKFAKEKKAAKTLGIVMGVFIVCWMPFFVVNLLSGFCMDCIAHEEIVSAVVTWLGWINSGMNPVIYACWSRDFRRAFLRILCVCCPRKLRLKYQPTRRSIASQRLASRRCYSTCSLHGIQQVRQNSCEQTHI

AaDOP2 = biological target: T3, AaDOP2 (Aedes aegypti, UniProt H6D5H2); test: as above
T3 construct: gene dop2; receptor expressed in HEK-293 cells, from authors' previous work
T3 sequence (H6D5H2 1-476): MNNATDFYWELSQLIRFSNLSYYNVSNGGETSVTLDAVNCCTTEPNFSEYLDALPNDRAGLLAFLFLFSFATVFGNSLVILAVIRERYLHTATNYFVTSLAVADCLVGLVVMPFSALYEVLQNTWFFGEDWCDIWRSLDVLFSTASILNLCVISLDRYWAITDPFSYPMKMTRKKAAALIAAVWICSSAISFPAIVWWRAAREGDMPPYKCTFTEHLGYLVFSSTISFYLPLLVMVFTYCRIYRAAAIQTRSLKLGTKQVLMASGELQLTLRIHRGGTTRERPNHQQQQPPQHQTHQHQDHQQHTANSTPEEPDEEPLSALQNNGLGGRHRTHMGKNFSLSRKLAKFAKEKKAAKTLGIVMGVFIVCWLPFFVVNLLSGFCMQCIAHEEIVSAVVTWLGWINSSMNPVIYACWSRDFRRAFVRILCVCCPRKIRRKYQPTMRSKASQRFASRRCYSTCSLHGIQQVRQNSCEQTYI

AgDOP2 [2] = biological target: T2, AgDOP2; test: IP-One HTRF IP1 accumulation, agonist stimulation, HEK-293

CN(C)CCC=C1c2ccccc2CCc2ccccc21 [Amitriptyline]
IC50 (CqDOP2): 80 ± 7 nM | IC50 (AgDOP2 [1]): 230 ± 20 nM | IC50 (AaDOP2): 50 ± 3 nM

CN1CCc2cc(Cl)c(O)cc2[C@@H](c2ccccc2)C1 [SCH23390]
IC50 (CqDOP2): 8300 ± 1000 nM | IC50 (AgDOP2 [1]): 3600 ± 800 nM | IC50 (AaDOP2): 4700 ± 800 nM

CCNC(=O)N1CCN(CCCC(c2ccc(F)cc2)c2ccc(F)cc2)CC1 [Amperozide]
IC50 (CqDOP2): 2600 ± 600 nM | IC50 (AgDOP2 [1]): 18800 ± 11000 nM | IC50 (AaDOP2): 5100 ± 1000 nM

CN1CC2c3ccccc3Oc3ccc(Cl)cc3C2C1 (stereo not drawn) [Asenapine]
IC50 (CqDOP2): 20 ± 4 nM | IC50 (AgDOP2 [1]): 0.7 ± 0.08 nM | IC50 (AaDOP2): 3 ± 0.5 nM

CSc1ccc2c(c1)C(N1CCN(C)CC1)Cc1ccccc1S2 (stereo not drawn) [Methiothepin]
IC50 (CqDOP2): 10 ± 5 nM | IC50 (AgDOP2 [1]): 140 ± 8 nM | IC50 (AaDOP2): 3 ± 1 nM

NCCc1ccc(O)c(O)c1 [dopamine]
EC50 (AgDOP2 [2]): 4700 ± 400 nM

CN(C)CC/C=C1/c2ccccc2Sc2ccc(Cl)cc21 [Chlorprothixene]
IC50 (CqDOP2): 10 ± 2 nM | IC50 (AgDOP2 [1]): 400 ± 7 nM
